Test results from patent US12285407B2, “Bis-indolylmethane derivatives and uses thereof” (The University of The West Indies, priority 2018, dated 2025).

Assays:
Escherichia coli [1] = experiment: Checkerboard synergy (FICI) of antibiotics with SP-BIM; design: MIC SP-BIM 13 only / MIC in combination: Antibiotic: unit not given beside the values
Bacillus cereus = experiment: as above; type: cell-based
Candida albicans = experiment: as above; design: MIC SP-BIM 13 only / MIC in combination: Antibiotic / MIC antibiotic only: unit not given beside the values
Enterococcus faecalis = experiment: Adjuvant broth microdilution (antibiotic MIC with SP-BIM at 50 μg/mL); type: cell-based; details: antibiotic alone
Escherichia coli [2] = experiment: microbe, parasite or virus in culture; type: cell-based; details: read-out: MIC of antibiotic, No compound
Klebsiella pneumoniae = experiment: Checkerboard synergy (FICI) of antibiotics with SP-BIM; type: cell-based
Streptococcus pneumoniae [3] = experiment: Adjuvant broth microdilution (antibiotic MIC with SP-BIM at 50 μg/mL); type: cell-based; details: Streptococcus pneumoniae, read-out: MIC of antibiotic, No compound
[4] = test system: clinical antibiotic resistant isolates of Enterococcus faecium; experiment: Checkerboard resistance breaking by SP-BIM 13; type: cell-based; details: for FIC compound / Rescue concentration of SP-BIM 13: SP-BIM 13 with the labelled antibiotic; for Interpretation / Σ FIC: antibiotic + SP-BIM 13; for MIC of antibiotic only: antibiotic alone; for FIC antibiotic: combination with SP-BIM 13; for MIC of antibiotic in combination: with SP-BIM 13 at rescue concentration
MRSA = experiment: Adjuvant broth microdilution (antibiotic MIC with SP-BIM at 50 μg/mL); type: cell-based, Staphylococcus aureus
Enterococcus faecium = experiment: Checkerboard synergy (FICI) of antibiotics with SP-BIM; type: cell-based; details: Enterococcus faecium
Streptococcus pneumoniae [5] = experiment: as above; type: cell-based
Staphylococcus aureus = experiment: as above; type: cell-based; details: Staphylococcus aureus
Enterobacter cloacae = experiment: Adjuvant broth microdilution (antibiotic MIC with SP-BIM at 50 μg/mL); type: cell-based; details: antibiotic alone
[6] = 24 h, read-out: MIC antibiotic only
[7] = MIC of the antibiotic in combination with SP-BIM 13
[8] = SP-BIM 9 in combination with the labelled antibiotic
[9] = SP-BIM 13 in combination with the labelled antibiotic
[10] = antibiotic in combination with SP-BIM 9
[11] = antibiotic alone, SP-BIM 13 checkerboard
[12] = antibiotic in combination with SP-BIM 13
[13] = Streptococcus pneumonia (title: Streptococcus pyogenes), antibiotic + SP-BIM 9
[14] = Streptococcus pneumoniae, antibiotic + SP-BIM 13

Compound: CN[C@H](CC(C)C)C(=O)N[C@H]1C(=O)N[C@@H](CC(N)=O)C(=O)N[C@H]2C(=O)N[C@H]3C(=O)N[C@H](C(=O)N[C@H](C(=O)O)c4cc(O)cc(O)c4-c4cc3ccc4O)[C@H](O)c3ccc(c(Cl)c3)Oc3cc2cc(c3O[C@@H]2O[C@H](CO)[C@@H](O)[C@H](O)[C@H]2O[C@H]2C[C@](C)(N)[C@H](O)[C@H](C)O2)Oc2ccc(cc2Cl)[C@H]1O [Vancomycin, vancomycin]
- MIC (Escherichia coli [1]; [6]): 125 mg/L
- MIC in combination: Antibiotic (Escherichia coli [1]; [7]): 125
- FIC of SP-BIM 9 (Escherichia coli [1]; [8]): 1
- FIC of SP-BIM 13 (Escherichia coli [1]; [9]): 1.0
- Interpretation (Escherichia coli [1]; antibiotic + SP-BIM 9): Indifferent (Indifferent: FICI>1.0-4.0)
- Σ FIC (Escherichia coli [1]; antibiotic + SP-BIM 9): <2.0
- Interpretation (Escherichia coli [1]; antibiotic + SP-BIM 13): Indifferent (Indifferent: FICI>1.0-4.0)
- Σ FIC (Escherichia coli [1]; antibiotic + SP-BIM 13): <2.0
- MIC antibiotic only (Escherichia coli [1]; antibiotic alone): 125
- MIC in combination, Antibiotic (Escherichia coli [1]; [10]): 125 mg/L
- FIC of antibiotic (Escherichia coli [1]; combination with SP-BIM 13): 1.0
- FIC of antibiotic (Escherichia coli [1]; in combination with SP-BIM 9): 1
- MIC (Bacillus cereus; [6]): 2 mg/L
- FIC of SP-BIM 13 (Bacillus cereus; [9]): 0.0
- Interpretation (Bacillus cereus; antibiotic + SP-BIM 13): Synergy (Synergy: FICI≤0.5)
- Σ FIC (Bacillus cereus; antibiotic + SP-BIM 13): 0.1
- MIC antibiotic only (Bacillus cereus; [11]): 2 mg/L
- MIC in combination, Antibiotic (Bacillus cereus; [12]): 0.25 mg/L
- FIC of antibiotic (Bacillus cereus; in combination with SP-BIM 13): 0.13
- MIC (Candida albicans; [6]): 16 mg/L
- MIC in combination: Antibiotic (Candida albicans; [7]): 8
- FIC of SP-BIM 13 (Candida albicans; [9]): 0.1
- Interpretation (Candida albicans; antibiotic + SP-BIM 13): Additive (Additive: FICI>0.5-1.0)
- Σ FIC (Candida albicans; antibiotic + SP-BIM 13): <0.6
- FIC of antibiotic (Candida albicans; combination with SP-BIM 13): 0.5
- MIC of antibiotic, No Compound (Enterococcus faecalis): 250 mg/L
- MIC (Escherichia coli [2]): 125 mg/L
- MIC (Klebsiella pneumoniae; [6]): 125 mg/L
- FIC of SP-BIM 9 (Klebsiella pneumoniae; [8]): 1
- FIC of SP-BIM 13 (Klebsiella pneumoniae; [9]): 1.0
- Interpretation (Klebsiella pneumoniae; antibiotic + SP-BIM 9): Indifferent (Indifferent: FICI>1.0-4.0)
- Σ FIC (Klebsiella pneumoniae; antibiotic + SP-BIM 9): <2.0
- Interpretation (Klebsiella pneumoniae; antibiotic + SP-BIM 13): Indifferent (Indifferent: FICI>1.0-4.0)
- Σ FIC (Klebsiella pneumoniae; antibiotic + SP-BIM 13): <2.0
- MIC antibiotic only (Klebsiella pneumoniae; [11]): 125 mg/L
- MIC in combination, Antibiotic (Klebsiella pneumoniae; [10]): 125 mg/L
- MIC in combination, Antibiotic (Klebsiella pneumoniae; [12]): 125 mg/L
- FIC of antibiotic (Klebsiella pneumoniae; in combination with SP-BIM 9): 1
- FIC of antibiotic (Klebsiella pneumoniae; in combination with SP-BIM 13): 1.0
- MIC (Streptococcus pneumoniae [3]): 1 mg/L
- FIC compound ([4]; E. faecium strain 21024): 0.128
- Rescue concentration of SP-BIM 13 ([4]; E. faecium strain 21024): 32 µg/mL
- Interpretation ([4]; E. faecium strain 21024): Synergy (Synergy: FICI≤0.5)
- Σ FIC ([4]; E. faecium strain 21024): <0.14
- MIC of antibiotic only ([4]; E. faecium strain 21024): 63 mg/L
- FIC antibiotic ([4]; E. faecium strain 21024): 0.016
- MIC of antibiotic in combination ([4]; E. faecium strain 21024): 1 mg/L
- FIC compound ([4]; E. faecium strain 22870): 0.004
- Rescue concentration of SP-BIM 13 ([4]; E. faecium strain 22870): 1 µg/mL
- Interpretation ([4]; E. faecium strain 22870): Synergy (Synergy: FICI≤0.5)
- Σ FIC ([4]; E. faecium strain 22870): <0.07
- MIC of antibiotic only ([4]; E. faecium strain 22870): 32 mg/L
- FIC antibiotic ([4]; E. faecium strain 22870): 0.063
- MIC of antibiotic in combination ([4]; E. faecium strain 22870): 2 mg/L
- FIC compound ([4]; E. faecium strain 23227): 0.032
- Rescue concentration of SP-BIM 13 ([4]; E. faecium strain 23227): 8 µg/mL
- Interpretation ([4]; E. faecium strain 23227): Synergy (Synergy: FICI≤0.5)
- Σ FIC ([4]; E. faecium strain 23227): <0.06
- MIC of antibiotic only ([4]; E. faecium strain 23227): 32 mg/L
- FIC antibiotic ([4]; E. faecium strain 23227): 0.031
- MIC of antibiotic in combination ([4]; E. faecium strain 23227): 1 mg/L
- FIC compound ([4]; E. faecium strain 23230): 0.064
- Rescue concentration of SP-BIM 13 ([4]; E. faecium strain 23230): 16 µg/mL
- Interpretation ([4]; E. faecium strain 23230): Synergy (Synergy: FICI≤0.5)
- Σ FIC ([4]; E. faecium strain 23230): <0.13
- MIC of antibiotic only ([4]; E. faecium strain 23230): 32 mg/L
- FIC antibiotic ([4]; E. faecium strain 23230): 0.063
- MIC of antibiotic in combination ([4]; E. faecium strain 23230): 2 mg/L
- FIC compound ([4]; E. faecium strain 23668): 0.064
- Rescue concentration of SP-BIM 13 ([4]; E. faecium strain 23668): 16 µg/mL
- Interpretation ([4]; E. faecium strain 23668): Synergy (Synergy: FICI≤0.5)
- Σ FIC ([4]; E. faecium strain 23668): <0.10
- MIC of antibiotic only ([4]; E. faecium strain 23668): 32 mg/L
- FIC antibiotic ([4]; E. faecium strain 23668): 0.031
- MIC of antibiotic in combination ([4]; E. faecium strain 23668): 1 mg/L
- FIC compound ([4]; E. faecium strain 24169): 0.128
- Rescue concentration of SP-BIM 13 ([4]; E. faecium strain 24169): 32 µg/mL
- Interpretation ([4]; E. faecium strain 24169): Synergy (Synergy: FICI≤0.5)
- Σ FIC ([4]; E. faecium strain 24169): <0.14
- MIC of antibiotic only ([4]; E. faecium strain 24169): 63 mg/L
- FIC antibiotic ([4]; E. faecium strain 24169): 0.008
- MIC of antibiotic in combination ([4]; E. faecium strain 24169): 0.5 mg/L
- Rescue concentration of SP-BIM 13 ([4]; E. faecium strain RC63): 63 µg/mL
- Interpretation ([4]; E. faecium strain RC63): Synergy (Synergy: FICI≤0.5)
- Σ FIC ([4]; E. faecium strain RC63): <0.26
- MIC of antibiotic only ([4]; E. faecium strain RC63): 32 mg/L
- FIC antibiotic ([4]; E. faecium strain RC63): 0.006
- MIC of antibiotic in combination ([4]; E. faecium strain RC63): 0.2 mg/L
- MIC ([4]; Enterococcus faecium, read-out: MIC of Vancomycin without SP-BIM 13): 32 to 63 mg/L
- MIC (MRSA; Staphylococcus aureus, read-out: MIC of antibiotic, No compound): 4 mg/L
- MIC of antibiotic, No Compound (MRSA; antibiotic alone, Table 8 (series SP-BIMs 21-29)): 2 mg/L
- MIC (Enterococcus faecium; [6]): 16 mg/L
- MIC in combination, SP-BIM 9 (Enterococcus faecium; SP-BIM 9 concentration in combination with the labelled antibiotic): 64 mg/L
- FIC of SP-BIM 9 (Enterococcus faecium; [8]): 0.3
- FIC of SP-BIM 13 (Enterococcus faecium; [9]): 0.5
- Interpretation (Enterococcus faecium; antibiotic + SP-BIM 9): Synergy (Synergy: FICI≤0.5)
- Σ FIC (Enterococcus faecium; antibiotic + SP-BIM 9): ≤0.31
- Interpretation (Enterococcus faecium; antibiotic + SP-BIM 13): Additive (Additive: FICI>0.5-1.0)
- Σ FIC (Enterococcus faecium; antibiotic + SP-BIM 13): <1.0
- MIC antibiotic only (Enterococcus faecium; [11]): 16 mg/L
- MIC in combination, Antibiotic (Enterococcus faecium; [10]): 0.2 mg/L
- MIC in combination, Antibiotic (Enterococcus faecium; [12]): 8 mg/L
- FIC of antibiotic (Enterococcus faecium; in combination with SP-BIM 9): 0.013
- FIC of antibiotic (Enterococcus faecium; in combination with SP-BIM 13): 0.5
- FIC of SP-BIM 9 (Streptococcus pneumoniae [5]; Streptococcus pneumonia (title: Streptococcus pyogenes), SP-BIM 9 in combination with the labelled antibiotic): 0.26
- Interpretation (Streptococcus pneumoniae [5]; [13]): Synergy (Synergy: FICI≤0.5)
- Σ FIC (Streptococcus pneumoniae [5]; [13]): <0.36
- MIC in combination, Antibiotic (Streptococcus pneumoniae [5]; Streptococcus pneumonia (title: Streptococcus pyogenes), antibiotic in combination with SP-BIM 9): 0.2 mg/L
- FIC of antibiotic (Streptococcus pneumoniae [5]; Streptococcus pneumonia (title: Streptococcus pyogenes), in combination with SP-BIM 9): 0.10
- MIC (Streptococcus pneumoniae [5]; Streptococcus pneumoniae, 24 h, read-out: MIC antibiotic only): 2 mg/L
- FIC of SP-BIM 13 (Streptococcus pneumoniae [5]; Streptococcus pneumoniae, SP-BIM 13 in combination with the labelled antibiotic): 0.1
- Interpretation (Streptococcus pneumoniae [5]; [14]): Synergy (Synergy: FICI≤0.5)
- Σ FIC (Streptococcus pneumoniae [5]; [14]): 0.3
- MIC antibiotic only (Streptococcus pneumoniae [5]; Streptococcus pneumoniae, antibiotic alone, SP-BIM 13 checkerboard): 2 mg/L
- MIC in combination, Antibiotic (Streptococcus pneumoniae [5]; Streptococcus pneumoniae, antibiotic in combination with SP-BIM 13): 0.5 mg/L
- FIC of antibiotic (Streptococcus pneumoniae [5]; Streptococcus pneumoniae, in combination with SP-BIM 13): 0.3
- MIC (Staphylococcus aureus; [6]): 2 mg/L
- FIC of SP-BIM 9 (Staphylococcus aureus; [8]): 0.02
- FIC of SP-BIM 13 (Staphylococcus aureus; [9]): 0.3
- Interpretation (Staphylococcus aureus; antibiotic + SP-BIM 9): Synergy (Synergy: FICI≤0.5)
- Σ FIC (Staphylococcus aureus; antibiotic + SP-BIM 9): <0.27
- Interpretation (Staphylococcus aureus; antibiotic + SP-BIM 13): Synergy (Synergy: FICI≤0.5)
- Σ FIC (Staphylococcus aureus; antibiotic + SP-BIM 13): 0.4
- MIC antibiotic only (Staphylococcus aureus; [11]): 2 mg/L
- MIC in combination, Antibiotic (Staphylococcus aureus; [10]): 0.5 mg/L
- MIC in combination, Antibiotic (Staphylococcus aureus; [12]): 0.25 mg/L
- FIC of antibiotic (Staphylococcus aureus; in combination with SP-BIM 9): 0.25
- FIC of antibiotic (Staphylococcus aureus; in combination with SP-BIM 13): 0.1
- MIC of antibiotic, No Compound (Enterobacter cloacae): >250 mg/L
